Reference: the NIST ThermoML archive (doi:10.1021/acs.jced.8b00554)

Assay: xn = mol fraction of the nth substance listed
Details: 313.15 K, Liquid, Vibrating tube method

CCCCCCCC [octane] + CCCO
Details | mass density [kg/m3]
100 kPa, x2 = 0.1631 | 693.18
100 kPa, x2 = 0.2111 | 695.76
100 kPa, x2 = 0.3158 | 701.99
100 kPa, x2 = 0.4411 | 711
100 kPa, x2 = 0.7301 | 740.14
100 kPa, x2 = 0.8823 | 763.46
1000 kPa, x2 = 0.1631 | 694.31
1000 kPa, x2 = 0.4411 | 712.19
1010 kPa, x2 = 0.2111 | 696.95
1010 kPa, x2 = 0.3158 | 703.21
1010 kPa, x2 = 0.7301 | 741.33
1010 kPa, x2 = 0.8823 | 764.37
2000 kPa, x2 = 0.7301 | 742.25
2010 kPa, x2 = 0.1631 | 695.26
2010 kPa, x2 = 0.2111 | 697.87
2010 kPa, x2 = 0.3158 | 704.14
2010 kPa, x2 = 0.4411 | 713.12
2010 kPa, x2 = 0.8823 | 765.24
3000 kPa, x2 = 0.2111 | 698.81
3000 kPa, x2 = 0.4411 | 714.05
3000 kPa, x2 = 0.7301 | 743.18
3010 kPa, x2 = 0.3158 | 705.04
3020 kPa, x2 = 0.1631 | 696.19
3020 kPa, x2 = 0.8823 | 766.13
4000 kPa, x2 = 0.2111 | 699.72
4000 kPa, x2 = 0.4411 | 714.95
4010 kPa, x2 = 0.3158 | 705.98
4010 kPa, x2 = 0.7301 | 744.05
4020 kPa, x2 = 0.1631 | 697.09
4020 kPa, x2 = 0.8823 | 767
5000 kPa, x2 = 0.1631 | 698.01
5000 kPa, x2 = 0.3158 | 706.86
5000 kPa, x2 = 0.8823 | 767.9
5010 kPa, x2 = 0.2111 | 700.64
5010 kPa, x2 = 0.7301 | 744.95
5020 kPa, x2 = 0.4411 | 715.86
6010 kPa, x2 = 0.2111 | 701.53
6010 kPa, x2 = 0.4411 | 716.76
6010 kPa, x2 = 0.7301 | 745.83
6010 kPa, x2 = 0.8823 | 768.74
6020 kPa, x2 = 0.1631 | 698.89
6020 kPa, x2 = 0.3158 | 707.76
7000 kPa, x2 = 0.3158 | 708.66
7010 kPa, x2 = 0.7301 | 746.74
7020 kPa, x2 = 0.1631 | 699.79
7020 kPa, x2 = 0.2111 | 702.4
7020 kPa, x2 = 0.4411 | 717.65
7020 kPa, x2 = 0.8823 | 769.63
8000 kPa, x2 = 0.1631 | 700.66
8010 kPa, x2 = 0.3158 | 709.55
8010 kPa, x2 = 0.4411 | 718.55
8010 kPa, x2 = 0.7301 | 747.6
8010 kPa, x2 = 0.8823 | 770.46
8020 kPa, x2 = 0.2111 | 703.3
9000 kPa, x2 = 0.3158 | 710.41
9000 kPa, x2 = 0.4411 | 719.39
9000 kPa, x2 = 0.7301 | 748.46
9010 kPa, x2 = 0.1631 | 701.54
9020 kPa, x2 = 0.2111 | 704.17
9020 kPa, x2 = 0.8823 | 771.29
10000 kPa, x2 = 0.2111 | 705.02
10010 kPa, x2 = 0.1631 | 702.41
10010 kPa, x2 = 0.4411 | 720.29
10010 kPa, x2 = 0.7301 | 749.32
10020 kPa, x2 = 0.3158 | 711.31
10020 kPa, x2 = 0.8823 | 772.16
11000 kPa, x2 = 0.1631 | 703.29
11000 kPa, x2 = 0.8823 | 772.97
11010 kPa, x2 = 0.3158 | 712.17
11010 kPa, x2 = 0.7301 | 750.16
11020 kPa, x2 = 0.2111 | 705.91
11020 kPa, x2 = 0.4411 | 721.14
12010 kPa, x2 = 0.1631 | 704.11
12010 kPa, x2 = 0.2111 | 706.77
12010 kPa, x2 = 0.3158 | 712.99
12010 kPa, x2 = 0.7301 | 751
12020 kPa, x2 = 0.4411 | 722
12020 kPa, x2 = 0.8823 | 773.81
13000 kPa, x2 = 0.4411 | 722.85
13000 kPa, x2 = 0.8823 | 774.61
13010 kPa, x2 = 0.1631 | 704.97
13010 kPa, x2 = 0.3158 | 713.85
13010 kPa, x2 = 0.7301 | 751.83
13020 kPa, x2 = 0.2111 | 707.6
14010 kPa, x2 = 0.3158 | 714.67
14020 kPa, x2 = 0.1631 | 705.8
14020 kPa, x2 = 0.2111 | 708.41
14020 kPa, x2 = 0.4411 | 723.68
14020 kPa, x2 = 0.7301 | 752.64
14020 kPa, x2 = 0.8823 | 775.41
15000 kPa, x2 = 0.4411 | 724.48
15010 kPa, x2 = 0.2111 | 709.26
15010 kPa, x2 = 0.3158 | 715.49
15010 kPa, x2 = 0.7301 | 753.46
